Marks after values point to notes of the source that are not given here.
Key:
[1] = test system: profilaggrin (PFG); assay: Real-time PCR gene expression in NHEK cells: profilaggrin; assay type: cell-based, human; conditions: 1 μM, seven days, relative to control = 1.00
Experimental: Since glucosyladenosines were confirmed in Experiment 5 to have an action of enhancing the differentiation of keratinocytes effective for skin improvement, a test for examining the change of the expression level of a molecular marker gene of keratinocytes, as an index, was performed as follows using a real-time PCR analysis method to examine the above action in more detail. The expression level of a ceramide-synthesis-related gene was also studied to examine the influence of glucosyladenosines on ceramide synthesis that had been known to have an important role in moisturizing the skin and barrier function of the skin and deemed to be effective for skin improvement. As genes for analysis, profilaggrin (PFG: a later differentiation marker) and involucrin (INV: an early differentiation marker) as differentiation markers of keratinocytes and β-glucocerebrosidase (GCase) and sphingomyelinase (SMase) as ceramide-synthesis-related enzymes were selected, and a gene for cyclophilin B (CypB) as an internal standard upon practicing PCR reaction was used (see FIG. 7). NHEK cells were inoculated to 6-well plate coated with collagen in an amount of 8×10^4 cells/1.5 ml/well, cultured with EpiLife medium, and cultured at 37° C. for two days under a 5 v/v % CO2 condition. Thereafter, the culture medium was removed, and the resulting cells were added with a fresh EpiLife medium containing 5′-glucosyladenosine, 3′-glucosyladenosine, or adenosine in a volume of 1.5 ml/well (giving a final concentration of 1 μM of any one of glucosyladenosines and adenosine), and cultured for seven days while replacing the medium with a fresh one containing any one of glucosyladenosines and adenosine in a volume of 1.5 ml/well every other day. After completion of the culture, each well was washed twice with PBS(K−), followed by adding 0.2 ml/well of 0.025% by mass of trypsin/EDTA solution to the resulting cells and allowing the cells to stand at an ambient temperature for five minutes to detach them from the plates. […]

[2] = test system: three-dimensional skin model (EPI-200 Kit); assay: Residual property in three-dimensional skin model (composition of permeated solution after 24 hours); conditions: 0.1% test sample in 30% ethanol
Experimental: (§1) “EPI Assay Medium”, a product name of EPI100 assay medium commercialized by Kurabo Industries Ltd., Okayama, Japan, was added to “12-WELL MULTI-MICROPLATE”, a product name of 12-well plate commercialized by Becton, Dickinson and Company, NJ, USA, in a volume of 0.33 ml/well; and “EPI-200 Kit”, a product name of a three-dimensional skin model cup, commercialized by Kanebo Cosmetics Inc., Tokyo, Japan, was transferred to each well. […] 5′-Glucosyladenosine prepared by the method in Experiment 1-2,3′-glucosyladenosine prepared by the method in Experiment 2, or adenosine was dissolved in 30% ethanol to give a final concentration of 0.1%, and 0.1 ml of each of the resulting solutions was added to each of the skin model cup. After incubating at 37° C. for 24 hours in a 5% CO2 condition, sample solutions (media in wells) were collected, subjected to ultrafiltration with “[sequence] 0.5 BIOMAX-5 MEMBRANE”, a product name of membrane commercialized by Nihon Millipore K.K., Tokyo, Japan, and diluted with the mobile phase. The diluent was subjected to HPLC under the following conditions and determined for the contents of 5′- and 3′-glucosyladenosines with an alternatively prepared standard curve.
<Conditions for HPLC Analysis>
(§2) Apparatus: an HPLC Pump, MODEL 510; a pump controller, MODEL 680; an autoinjector, MODEL 712; a detector, MODEL 2487; a data processing (quantity calculation), EMPOWER 2 SOFTWARRE, commercialized by Nihon Millipore K.K., Tokyo, Japan;
(§3) Column: “YMC-PACK ODS AQ-303”, a product name of an ODS column, ø4.6 mm×250 mm, commercialized by YMC Co., Ltd., Kyoto, Japan;
(§4) Mobile phase: {20 mM Acetic acid-ammonium acetate buffer (pH 3.5)}/(methanol)=92/8 (v/v);
Detection wavelength: 260 nm;
Injection volume: 10 μl; and
Column temperature: 40° C.

[3] = test system: keratinocyte growth factor (KGF); assay: Expression of keratinocyte growth factor in NHDF cells (real-time PCR); assay type: cell-based, human; conditions: four hours, control = 1.0
Description: The confirmation that glucosyladenosines have an action of enhancing the differentiation of keratinocytes in Experiments 5 and 7 led to an examination on keratinocyte proliferation. The effects of 5′- and […] on the expression of keratinocyte growth factor (KGF) in normal human dermal fibroblasts (NHDF) were compared. […] After the culture, the supernatant in each well was removed and added with 5′-glucosyladenosine obtained by the method in Experiment 1-2 or 3′-glucosyladenosine obtained by the method in Experiment 2, which were respectively diluted with a DMEM medium supplemented with 1 v/v % FCS to give respective concentrations of 0.15 mM and 1.5 mM. A DMEM medium supplemented with 1 v/v % FCS but with no glucosyladenosines was used as a control. The cells were cultured at 37° C. for four hours under a 5 v/v % CO2 condition, washed twice with PBS(−) after removing the culture supernatants in each well by aspiration, and fed to an RNA extraction.
“QIA shledder+RNeasy Mini Kit”, a product name of a commercialized RNA extraction kit, produced by GIAGEN Benelux B.V., Netherlands, was used to extract the total RNAs. The handlings followed the operating instructions attached to the kit. Using “Super Script VILO cDNA Synthesis Kit”, a product name of a cDNA synthesis kit, commercialized by Invitrogen Corporation, CA, USA, an RT reaction was conducted under the conditions of treating a mixture of 10.5 μl of RNA, three microliters of 5×VILO reaction mix, 1.5 μl of 10× enzyme mix (15 μl in total) at 25° C. for 10 min, 42° C. for 60 min, and then 85° C. for five minutes.
Using “LightCycler 480 SYBR Green I Master”, a product name of Roche Diagnostics K.K., Tokyo, Japan, a real-time PCR reaction was conducted by mixing 1.8 μl of water, 6.0 μl of master mix, 0.6 μl of primer L (10 μM), 0.6 μl of primer R (10 μM), and 3.0 μl of template (12.0 μl in total), and treated with 45 cycles of a successive incubation cycle at 95° C. for 10 sec, 60° C. for 10 sec, and 72° C. for 15 sec). The KGF expression level in each sample was calculated from a standard curve and calibrated with the expression level of an internal standard (18s rRNA). Relative value for each sample was determined, when the expression level of the control was regarded as 1.0, and evaluated. The primers used were of Table 9.

[4] = test system: three-dimensional skin model (EPI-200 Kit); conditions: human, 24 h, 0.1 %
Experimental: as §1
<Conditions for HPLC Analysis>
as §2, §3, §4
Detection wavelength: 260 nm;
Injection volume: 10 μl; and
Column temperature: 40° C.

| SMILES | Gene expression level PFG [1] | Composition of permeated solution: 3′-glucosyladenosine [2] | Concentration of 3′-glucosyladenosine in permeated solution [2] | Relative expression level of KGF ([3]; 0.15 mM) | Relative expression level of KGF ([3]; 1.5 mM) | Composition of permeated solution: 5′-glucosyladenosine [2] | Concentration of 5′-glucosyladenosine in permeated solution [2] | Composition of permeated solution: adenosine [4] | Composition of permeated solution: hypoxanthine [4] | Composition of permeated solution: inosine [4] | Concentration of adenosine in permeated solution [4] | Concentration of hypoxanthine in permeated solution [4] | Concentration of inosine in permeated solution [4] |
| --- | --- | --- | --- | --- | --- | --- | --- | --- | --- | --- | --- | --- | --- |
| Nc1ncnc2c1ncn2[C@@H]1O[C@H](CO)[C@@H](O[C@H]2O[C@H](CO)[C@@H](O)[C@H](O)[C@H]2O)[C@H]1O [3′-Glucosyladenosine, α-D-glucopyranosyl-(1→3′)-adenosine] | 2.03* | 27% | 25 µM | 2.3 | 2.7 |  |  |  |  |  |  |  |  |
| Nc1ncnc2c1ncn2[C@@H]1O[C@H](CO[C@H]2O[C@H](CO)[C@@H](O)[C@H](O)[C@H]2O)[C@@H](O)[C@H]1O [5′-Glucosyladenosine, α-D-glucopyranosyl-(1→5′)-adenosine] | 2.54** |  |  | 0.9 | 1.4 | 65% | 60 µM |  |  |  |  |  |  |
| Nc1ncnc2c1ncn2[C@@H]1O[C@H](CO)[C@@H](O)[C@H]1O [Adenosine, reference compound] | 1.41 |  |  |  |  |  |  | 0% | 77% | 23% | 0 nM | 187 µM | 55 µM |

Reference: patent US9492368B2, “External preparation for skin” (HAYASHIBARA CO., LTD., priority 2011, dated 2016)
